# Measurements from patent US20240158446A1, “CYCLIC COMPOUND HAVING SELECTIVE INHIBITORY ACTION ON KRAS OVER HRAS AND NRAS” (CHUGAI SEIYAKU KABUSHIKI KAISHA, priority 2021, published 2024).
# pIC50, pKd: −log10 of the molar value.
# How the values were obtained:
# [1] = molecular target: GDP-bound HRAS wild-type protein (Homo sapiens, UniProt P01112); assay: Binding to HRAS by surface plasmon resonance (SPR), Single Cycle Kinetics; conditions: SPR, GDP-bound HRAS wild-type protein vs GDP-bound KRAS wild-type protein
# Chain of GDP-bound HRAS wild-type protein (P01112 whole entry): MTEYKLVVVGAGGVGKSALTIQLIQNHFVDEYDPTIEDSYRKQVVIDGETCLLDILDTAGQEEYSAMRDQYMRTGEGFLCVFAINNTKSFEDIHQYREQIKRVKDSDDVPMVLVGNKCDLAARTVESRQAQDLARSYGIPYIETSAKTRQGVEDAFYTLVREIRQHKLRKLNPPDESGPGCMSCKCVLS
# [2] = molecular target: GDP-bound KRAS wild-type protein (Homo sapiens, UniProt P01116); assay: Binding to KRAS by surface plasmon resonance (SPR), Single Cycle Kinetics; conditions: SPR, Single Cycle Kinetics, GDP-bound KRAS wild-type protein; read-out: KRAS KD
# Chain of GDP-bound KRAS wild-type protein (P01116 whole entry): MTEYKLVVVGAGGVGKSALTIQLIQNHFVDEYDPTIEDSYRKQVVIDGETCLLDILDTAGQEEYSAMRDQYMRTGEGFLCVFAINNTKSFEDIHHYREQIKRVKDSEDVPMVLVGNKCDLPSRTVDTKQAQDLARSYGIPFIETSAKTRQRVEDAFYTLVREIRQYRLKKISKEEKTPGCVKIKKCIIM
# [3] = molecular target: GDP-bound NRAS wild-type protein (Homo sapiens, UniProt P01111); assay: Binding to NRAS by surface plasmon resonance (SPR), Single Cycle Kinetics; conditions: SPR, GDP-bound NRAS wild-type protein vs GDP-bound KRAS wild-type protein
# Chain of GDP-bound NRAS wild-type protein (P01111 whole entry): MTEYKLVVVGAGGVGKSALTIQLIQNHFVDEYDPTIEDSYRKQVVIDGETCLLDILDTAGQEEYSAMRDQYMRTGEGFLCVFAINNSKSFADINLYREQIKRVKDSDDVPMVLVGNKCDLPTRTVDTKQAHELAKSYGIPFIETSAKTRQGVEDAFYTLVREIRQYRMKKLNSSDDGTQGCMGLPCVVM
# [4] = system: human lung cancer strain NCI-H441;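 note: cell proliferation inhibition after four days measured by CellTiter-Glo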
Structure (SMILES),HRAS/KRAS (ratio of KD value for HRAS to KD value for KRAS) [1],pKd [2],NRAS/KRAS (ratio of KD value for NRAS to KD value for KRAS) [3],pIC50 [4]
CCO[C@@H]1C[C@H]2C(=O)NC3(CCCC3)C(=O)N(C)[C@@H](C3CCCC3)C(=O)N(C)[C@H](C(=O)N3CCOCC3)CC(=O)N(C)[C@@H](COC)C(=O)N[C@@H]([C@@H](C)CC)C(=O)N3CC[C@H]3C(=O)N(C)[C@H]3CCCCCN(C3=O)[C@@H](Cc3ccc(C(F)(F)F)cc3)C(=O)N(C)CC(=O)N[C@@H](CCc3cc(F)c(C(F)(F)F)c(F)c3)C(=O)N2C1 [PP0867],B (a compound having 3 or more and less than 10 is denoted as B),8.92,B (a compound having 3 or more and less than 10 is denoted as B),6.69
C=CCC[C@H]1C(=O)N[C@@H]([C@@H](C)CC)C(=O)N(C)CC(=O)N(C)[C@H]2CCCCCN(C2=O)[C@@H](Cc2ccc(C(F)(F)F)cc2)C(=O)N(C)CC(=O)N[C@@H](CCc2cc(F)c(C(F)(F)F)c(F)c2)C(=O)N2C[C@H](OCC)C[C@H]2C(=O)N[C@](C)(CC=C)C(=O)N(C)[C@@H](C2CCCC2)C(=O)N(C)[C@H](C(=O)N2CCOCC2)CC(=O)N1C [PP0879],B (a compound having 3 or more and less than 10 is denoted as B),8.07,B (a compound having 3 or more and less than 10 is denoted as B),6.71
CCO[C@@H]1C[C@H]2C(=O)NC3(CCC3)C(=O)N(C)[C@@H](C3CCCC3)C(=O)N(C)[C@H](C(=O)N(C)C)CC(=O)N(C)[C@@H](CC)C(=O)N[C@@H]([C@@H](C)CC)C(=O)N(C)CC(=O)N(C)[C@H]3CCCCCN(C3=O)[C@@H](Cc3ccc(C(F)(F)F)cc3)C(=O)N(C)CC(=O)N[C@@H](CCc3ccc4sccc4c3)C(=O)N2C1 [PP0892],B (a compound having 3 or more and less than 10 is denoted as B),9.48,B (a compound having 3 or more and less than 10 is denoted as B),7.27
CCO[C@@H]1C[C@H]2C(=O)NC3(CCC3)C(=O)N(C)[C@@H](C3CCCC3)C(=O)N(C)[C@H](C(=O)N3CCOCC3)CC(=O)N(C)[C@@H](CC(C)C)C(=O)N[C@@H]([C@@H](C)CC)C(=O)N(C)CC(=O)N(C)[C@H]3CCCCCN(C3=O)[C@@H](Cc3ccc4sccc4c3)C(=O)N(C)CC(=O)N[C@@H](CCc3cc(F)c(C(F)(F)F)c(F)c3)C(=O)N2C1 [PP0920],B (a compound having 3 or more and less than 10 is denoted as B),9.54,B (a compound having 3 or more and less than 10 is denoted as B),7.12
CCO[C@@H]1C[C@H]2C(=O)NC3(CCC3)C(=O)N(C)[C@@H](C3CCCC3)C(=O)N(C)[C@H](C(=O)N3CCOCC3)CC(=O)N(C)[C@@H](CC(C)C)C(=O)N[C@@H]([C@@H](C)CC)C(=O)N(C)CC(=O)N(C)[C@H]3CCCCCN(C3=O)[C@@H](Cc3ccc4ccsc4c3)C(=O)N(C)CC(=O)N[C@@H](CCc3cc(F)c(C(F)(F)F)c(F)c3)C(=O)N2C1 [PP0921],B (a compound having 3 or more and less than 10 is denoted as B),8.59,B (a compound having 3 or more and less than 10 is denoted as B),6.86
CCO[C@@H]1C[C@H]2C(=O)NC3(CCC3)C(=O)N(C)[C@@H](C3CCCC3)C(=O)N(C)[C@H](C(=O)N3CCOCC3)CC(=O)N(C)[C@@H](Cc3cccc(C)c3)C(=O)N[C@@H]([C@@H](C)CC)C(=O)N(C)CC(=O)N(C)[C@H]3CCCCCN(C3=O)[C@@H](Cc3ccc(C(F)(F)F)cc3)C(=O)N(C)CC(=O)N[C@@H](CCc3cc(F)c(C(F)(F)F)c(F)c3)C(=O)N2C1 [PP0932],B (a compound having 3 or more and less than 10 is denoted as B),8.54,B (a compound having 3 or more and less than 10 is denoted as B),6.80
